Molecules are shown by their SMILES.

The assay deals with Maltase-glucoamylase (Homo sapiens, UniProt O43451). The experiment in a line: Inhibition of Alpha-glucosidase (unknown origin).
Maltase-glucoamylase, sequence (O43451 whole entry): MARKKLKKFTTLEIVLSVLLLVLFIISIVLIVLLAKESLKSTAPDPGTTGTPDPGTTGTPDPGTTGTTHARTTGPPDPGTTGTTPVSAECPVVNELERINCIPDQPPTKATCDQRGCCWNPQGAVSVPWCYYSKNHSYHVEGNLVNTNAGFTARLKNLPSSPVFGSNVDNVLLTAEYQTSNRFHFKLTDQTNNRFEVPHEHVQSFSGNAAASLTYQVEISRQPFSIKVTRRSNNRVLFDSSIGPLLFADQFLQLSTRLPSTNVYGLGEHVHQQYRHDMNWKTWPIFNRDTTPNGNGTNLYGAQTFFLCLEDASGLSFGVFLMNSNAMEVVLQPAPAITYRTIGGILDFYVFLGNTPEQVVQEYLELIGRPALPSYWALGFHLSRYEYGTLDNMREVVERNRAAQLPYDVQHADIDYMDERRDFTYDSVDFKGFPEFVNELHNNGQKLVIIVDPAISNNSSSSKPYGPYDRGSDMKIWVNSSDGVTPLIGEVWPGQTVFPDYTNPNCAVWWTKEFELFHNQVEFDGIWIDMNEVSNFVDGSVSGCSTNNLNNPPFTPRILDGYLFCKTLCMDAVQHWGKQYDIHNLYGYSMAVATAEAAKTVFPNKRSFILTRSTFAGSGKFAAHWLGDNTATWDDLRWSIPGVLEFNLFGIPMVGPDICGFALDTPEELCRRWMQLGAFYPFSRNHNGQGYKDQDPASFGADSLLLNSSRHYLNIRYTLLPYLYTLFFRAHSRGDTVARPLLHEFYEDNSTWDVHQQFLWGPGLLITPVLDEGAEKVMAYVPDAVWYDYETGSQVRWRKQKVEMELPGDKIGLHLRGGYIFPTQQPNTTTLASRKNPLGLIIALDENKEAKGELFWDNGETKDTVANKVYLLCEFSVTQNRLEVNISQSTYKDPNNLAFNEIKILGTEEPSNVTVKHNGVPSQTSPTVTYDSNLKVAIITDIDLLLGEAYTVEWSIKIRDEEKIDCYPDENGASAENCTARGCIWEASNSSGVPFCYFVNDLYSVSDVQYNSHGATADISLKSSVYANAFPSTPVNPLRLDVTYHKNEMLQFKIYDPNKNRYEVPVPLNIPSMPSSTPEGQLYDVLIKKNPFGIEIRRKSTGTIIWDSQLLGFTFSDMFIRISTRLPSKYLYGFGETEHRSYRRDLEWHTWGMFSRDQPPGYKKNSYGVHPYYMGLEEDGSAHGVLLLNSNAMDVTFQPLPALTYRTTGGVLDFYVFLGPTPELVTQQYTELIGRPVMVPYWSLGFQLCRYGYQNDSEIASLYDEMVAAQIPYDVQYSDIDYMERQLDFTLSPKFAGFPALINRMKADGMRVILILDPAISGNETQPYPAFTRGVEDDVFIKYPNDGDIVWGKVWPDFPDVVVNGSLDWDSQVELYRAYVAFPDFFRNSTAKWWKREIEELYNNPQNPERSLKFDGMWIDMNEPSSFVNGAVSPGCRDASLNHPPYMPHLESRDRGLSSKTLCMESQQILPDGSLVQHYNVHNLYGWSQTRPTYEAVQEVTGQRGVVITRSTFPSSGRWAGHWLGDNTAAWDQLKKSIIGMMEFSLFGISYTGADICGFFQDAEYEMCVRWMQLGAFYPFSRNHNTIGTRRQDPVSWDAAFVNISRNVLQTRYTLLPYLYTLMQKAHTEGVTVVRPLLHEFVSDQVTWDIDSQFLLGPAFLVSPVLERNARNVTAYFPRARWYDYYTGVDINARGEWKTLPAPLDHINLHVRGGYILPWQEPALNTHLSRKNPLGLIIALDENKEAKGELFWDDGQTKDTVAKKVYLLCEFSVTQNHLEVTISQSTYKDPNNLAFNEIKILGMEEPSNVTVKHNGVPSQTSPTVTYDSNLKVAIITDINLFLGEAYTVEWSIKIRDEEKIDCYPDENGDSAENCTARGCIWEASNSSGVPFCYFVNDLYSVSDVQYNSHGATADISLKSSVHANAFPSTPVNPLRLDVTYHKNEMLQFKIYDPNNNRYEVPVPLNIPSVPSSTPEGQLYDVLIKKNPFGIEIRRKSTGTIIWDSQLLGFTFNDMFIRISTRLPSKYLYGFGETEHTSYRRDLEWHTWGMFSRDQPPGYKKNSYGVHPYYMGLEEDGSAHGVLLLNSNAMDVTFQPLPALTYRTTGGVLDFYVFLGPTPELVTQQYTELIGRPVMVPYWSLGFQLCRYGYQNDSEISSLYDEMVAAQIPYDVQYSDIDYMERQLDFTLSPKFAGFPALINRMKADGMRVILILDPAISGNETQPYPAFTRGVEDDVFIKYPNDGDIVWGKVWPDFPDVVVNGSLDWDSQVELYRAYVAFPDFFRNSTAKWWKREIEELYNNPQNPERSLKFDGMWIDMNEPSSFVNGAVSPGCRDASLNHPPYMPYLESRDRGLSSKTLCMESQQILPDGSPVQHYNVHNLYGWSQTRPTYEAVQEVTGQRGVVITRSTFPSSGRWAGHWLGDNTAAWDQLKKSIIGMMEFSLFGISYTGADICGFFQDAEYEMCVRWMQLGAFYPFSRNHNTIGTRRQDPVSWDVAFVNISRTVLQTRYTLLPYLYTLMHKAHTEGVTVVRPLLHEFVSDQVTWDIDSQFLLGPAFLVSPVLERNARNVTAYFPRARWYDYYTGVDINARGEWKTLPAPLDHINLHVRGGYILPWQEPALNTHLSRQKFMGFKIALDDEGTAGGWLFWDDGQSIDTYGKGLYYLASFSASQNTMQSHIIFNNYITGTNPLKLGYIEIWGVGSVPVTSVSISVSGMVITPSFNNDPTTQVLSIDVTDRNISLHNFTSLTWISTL
As a reminder, the IC50 is the concentration at which inhibition is half-maximal. High values mean lower potency, low ones higher potency. `COc1ccc2c(c1)OC[C@H]1c3ccc(OC)c(O)c3O[C@@H]21` displayed an IC50 of 128 µM. Then `COc1ccc2c(c1OC)O[C@H]1c3ccc(O)cc3OC[C@@H]21`, with 174 µM; and `O=c1oc2cc(O)ccc2c2oc3cc(O)ccc3c12` [5,14-dihydroxy-8,17-dioxatetracyclo[8.7.0.0^{2,7}.0^{11,16}]heptadeca-1(10),2,4,6,11(16),12,14-heptaen-9-one], with 6 µM.

Source of the values: BindingDB's records for PubMed 28189086 (Texas Southern University, 2017).
